Experiments:
Format in all cases: in vivo
Conditions in all cases: mice
[1] = test system: P388 leukemia; assay: Antitumor effect against P388 leukemia, QD 1→9 ip
Protocol: (§1) Antitumor activity of representative compounds of the present invention was determined using in vivo murine transplantable P388 leukemia and B16 melanoma models.
(§2) P388 leukemia: female CDF1 and male BDF1 mice were inoculated by intraperitoneal injection of 0.8 ml diluted ascitic fluid containing 10^6 cells.
(§3) Test materials were dissolved in 0.9% saline containing 10% dimethyl sulfoxide and graded doses of them were administered to mice intraperitoneally 24 hrs after tumor implantation. Two dosing schedules were used for the P388 leukemia experiment: once daily on day 1 through day 3 (QD 1→3); and once daily on day 1 through day 9(QD 1→9). The QD 1→9 schedule was used for the B16 melanoma experiment.
(§4) Antitumor activity is evaluated as the increase in median survival time (MST) of treated (T) and control (C) animals for various dosage regimens expressed as a percentage ratio (T/C %=MST of treated.div.MST of control×100). For both in vivo P388 leukemia and in vivo B16 melanoma models, values for percentage ratios of 125 and above indicate significant antitumor effect.

[2] = test system: P388 leukemia; assay: Antitumor effect against P388 leukemia, QD 1→3 ip
Protocol: as §1, §2, §3, §4

[3] = test system: B16 melanoma; assay: Antitumor effect against B16 melanoma, QD 1→9 ip
Protocol: as §1
B16 melanoma: male BDF1 mice were implanted with 0.5 ml of a 10% tumor brei intraperitoneally.
as §3, §4

Structure (SMILES) | MST (% T/C) ([1]; 0.13 mg/kg/day) | MST (% T/C) ([1]; 0.25 mg/kg/day) | MST (% T/C) ([1]; 0.63 mg/kg/day) | MST (% T/C) ([1]; 1 mg/kg/day) | MST (% T/C) ([1]; 2 mg/kg/day) | MST (% T/C) ([2]; 1 mg/kg/day) | MST (% T/C) ([2]; 3 mg/kg/day) | MST (% T/C) ([2]; 10 mg/kg/day) | other results
CCCCCCC/C=C/C=C/C(=O)N[C@H](C(=O)N[C@H]1C[C@@H](O)CCNC(=O)/C=C/[C@H](C)NC1=O)[C@@H](C)O [BU-2867T A] | 130 | 150 | 110 | 190 % T/C | Tox | 145 | Tox |  | MST (% T/C) ([1]; 0.5 mg/kg/day): 155 % T/C; MST (% T/C) ([2]; .3 mg/kg/day): 130 % T/C; MST (% T/C) ([3]; 1 mg/kg/day): 116 % T/C; MST (% T/C) ([3]; 2 mg/kg/day): Tox; MST (% T/C) ([3]; .13 mg/kg/day): 97 % T/C; MST (% T/C) ([3]; .25 mg/kg/day): 100 % T/C; MST (% T/C) ([3]; .5 mg/kg/day): 113 % T/C
CCCCCC=CCCC=CC=CC(=O)NC(C(=O)NC1CC(O)CCNC(=O)C=CC(C)NC1=O)C(C)O (centres unmarked) [BU-2867T B] |  | 130 | 130 | 170 % T/C | 180 % T/C |  |  |  | MST (% T/C) ([1]; 4 mg/kg/day): Tox; MST (% T/C) ([3]; 2 mg/kg/day): Tox
CCCCCCCCCC=CC=CC(=O)NC(C(=O)NC1CC(O)CCNC(=O)C=CC(C)NC1=O)C(C)O (centres unmarked) [BU-2867T C] | 130 | 160 |  | 170 % T/C |  |  |  | 57 | MST (% T/C) ([1]; 4 mg/kg/day): 65 % T/C; MST (% T/C) ([3]; 4 mg/kg/day): Tox
CCCCCCCCCCCC(=O)N[C@H](C(=O)NC1CC(O)CCNC(=O)/C=C/C(C)NC1=O)[C@@H](C)O (some centres unmarked) [Example 1, n-Dodecanoyl-III] |  |  |  | 150 % T/C |  | 130 |  |  | 
CCCCCCCCCC(=O)N[C@H](C(=O)NC1CC(O)CCNC(=O)/C=C/C(C)NC1=O)[C@@H](C)O (some centres unmarked) [Example 2, n-Decanoyl-III] |  |  |  |  |  |  |  | 64 | 
CCCCCCCCCCCCCC(=O)N[C@H](C(=O)NC1CC(O)CCNC(=O)/C=C/C(C)NC1=O)[C@@H](C)O (some centres unmarked) [Example 3, n-Tetradecanoyl-III] |  |  |  | 150 % T/C | 150 % T/C |  |  | 55 | 
CCCCCCCCOc1ccc(C(=O)N[C@H](C(=O)NC2CC(O)CCNC(=O)/C=C/C(C)NC2=O)[C@@H](C)O)cc1 (some centres unmarked) [Example 6, p-n-Octyloxybenzoyl-III] | 140 | 150 | 120 | Tox |  | 150 | Tox |  | 
CCCCCCCCCCCCCCCC(=O)NC(C(=O)NC1CC(O)CCNC(=O)C=CC(C)NC1=O)C(C)O [Example 10, Palmitoyl-L-Threonyl-II] |  |  |  |  |  | 114 | 119 % T/C | 138 | 
